Where “and” joins values, the source holds several entries; their conditions need not be identical. Equal values may be shown once.
Assays:
Aqueous solubility = assay type: physicochemical; conditions: limited evaluation to ≤ 10 μM
TOP2B = target: T1, TOP2B (Rattus norvegicus, UniProt A0A8I5Y7L4); assay: TOP2B protein levels in NVCM (Western blotting); assay type: cell-based; conditions: for TOP2B protein level: independent replicates
T1 construct: endogenous in cells; host or cells: primary neonatal Wistar rat ventricular cardiomyocytes (NVCM)
T1 sequence (A0A8I5Y7L4 1-1614): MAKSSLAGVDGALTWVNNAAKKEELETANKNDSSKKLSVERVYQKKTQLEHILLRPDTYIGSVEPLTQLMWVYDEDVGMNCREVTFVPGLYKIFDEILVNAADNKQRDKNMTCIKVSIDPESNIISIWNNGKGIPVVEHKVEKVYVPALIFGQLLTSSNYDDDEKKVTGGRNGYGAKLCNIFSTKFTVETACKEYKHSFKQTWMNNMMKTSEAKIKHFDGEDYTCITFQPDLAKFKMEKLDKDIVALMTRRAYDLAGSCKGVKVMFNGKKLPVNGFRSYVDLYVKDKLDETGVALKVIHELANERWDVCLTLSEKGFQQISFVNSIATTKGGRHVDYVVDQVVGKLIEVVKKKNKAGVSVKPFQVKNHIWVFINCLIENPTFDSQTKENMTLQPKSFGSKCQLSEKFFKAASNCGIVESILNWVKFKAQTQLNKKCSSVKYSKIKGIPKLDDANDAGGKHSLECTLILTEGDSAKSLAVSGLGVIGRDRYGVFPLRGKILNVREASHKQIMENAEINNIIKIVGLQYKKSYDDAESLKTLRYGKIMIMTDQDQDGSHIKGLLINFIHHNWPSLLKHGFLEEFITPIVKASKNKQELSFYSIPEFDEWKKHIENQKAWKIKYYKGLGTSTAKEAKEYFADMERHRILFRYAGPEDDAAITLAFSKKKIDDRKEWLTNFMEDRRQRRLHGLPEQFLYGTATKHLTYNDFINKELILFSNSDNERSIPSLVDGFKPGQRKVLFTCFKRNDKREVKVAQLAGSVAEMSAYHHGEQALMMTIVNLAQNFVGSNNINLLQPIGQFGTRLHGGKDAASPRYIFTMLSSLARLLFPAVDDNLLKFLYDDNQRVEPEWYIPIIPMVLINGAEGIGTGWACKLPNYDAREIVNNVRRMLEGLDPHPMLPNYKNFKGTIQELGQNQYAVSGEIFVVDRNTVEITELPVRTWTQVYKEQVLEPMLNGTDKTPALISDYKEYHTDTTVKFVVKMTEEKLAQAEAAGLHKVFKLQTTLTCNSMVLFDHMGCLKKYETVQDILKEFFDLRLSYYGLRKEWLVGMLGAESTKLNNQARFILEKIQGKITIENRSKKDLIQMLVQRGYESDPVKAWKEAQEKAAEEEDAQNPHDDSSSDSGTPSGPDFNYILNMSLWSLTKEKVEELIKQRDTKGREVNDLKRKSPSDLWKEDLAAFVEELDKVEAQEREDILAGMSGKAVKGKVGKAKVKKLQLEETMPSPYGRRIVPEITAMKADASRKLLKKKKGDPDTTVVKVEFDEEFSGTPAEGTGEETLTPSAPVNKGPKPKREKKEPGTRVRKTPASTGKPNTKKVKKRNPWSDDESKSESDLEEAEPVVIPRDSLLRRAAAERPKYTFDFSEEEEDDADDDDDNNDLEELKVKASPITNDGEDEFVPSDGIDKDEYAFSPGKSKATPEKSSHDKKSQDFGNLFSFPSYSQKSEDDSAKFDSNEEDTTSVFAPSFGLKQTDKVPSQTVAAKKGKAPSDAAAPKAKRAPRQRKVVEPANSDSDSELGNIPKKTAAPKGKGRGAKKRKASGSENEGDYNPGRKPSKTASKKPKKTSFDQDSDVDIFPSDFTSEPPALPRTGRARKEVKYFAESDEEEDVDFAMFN
Procedure: TOP2B and γH2AX levels in NVCM were determined as follows. After incubation, 4 × 10^5 rat neonatal cardiomyocytes were lysed with 75 µL of 2% SDS in 0.1 M Tris (pH 7.4) and boiled at 95 °C for 5 min. The protein content of each sample was determined by the BCA method and 10 μg of total protein were loaded onto a polyacrylamide gel (7.5% for TOP2B, 12% for γH2AX, Bio-Rad TGX stain-free gels). After approximately 75 min of electrophoresis (150 V, Bio-Rad Mini-PROTEAN Tetra Cell), the gels were transblotted onto nitrocellulose membranes using a semi-dry method in Transblot Turbo (Bio-Rad, USA). The next day, the membranes were blocked for 1 h in 5% skimmed milk powder in 0.05% TBS-T at room temperature (RT). For TOP2 analysis, membranes were incubated with rabbit anti-TOP2A/B (1:2,000, ab109524, Abcam, UK) in 1% BSA in PBS for 1 h at RT, washed 6 times for 5 min in 0.05% TBS-T and then incubated with HRP-labeled F(ab’)2 goat anti-rabbit IgG (1:10,000, ab6112, Abcam, UK) in 0.05% TBS-T for 1 h RT and washed again (6 × 5 min in 0.05% TBS-T). For γH2AX analysis, membranes were incubated with mouse anti-γH2AX (1:5,000; ab26350, Abcam, UK) in 5% BSA in PBS for 1 h at RT, washed with 0.05% PBS-T for 6 × 5 min, incubated with HRP-conjugated anti-mouse IgG (1:40,000; A9044 Sigma Aldrich, USA) in 5% BSA in PBS for 1 h RT and finally washed with 0.05% PBS-T for 6 times 5 min. Target proteins were visualized using a chemiluminescent detection substrate (Clarity Western ECL Substrate, Bio-Rad, USA) and a Gel Doc EZ with Image Lab software (Bio-Rad, USA). Full, uncropped images of all blots present in the manuscript figures are included in the source data file.
Densitometric quantification was performed using Image Lab software (Bio-Rad). Stain-free technology was used to visualize the total protein on the gel and normalize the total protein amount in each line. Each presented data point was obtained from distinct sample.

NVCM = assay: Live-cell microscopy and mitochondrial membrane staining of NVCM; assay type: cell-based, rat; conditions: 10 µM + DAU 1.2 µM
Procedure: Micrographs were obtained using an Eclipse TS100 inverted epifluorescence microscope (Nikon Corporation, Tokyo, Japan) and NIS-Elements AR 2.20 software (Laboratory Imaging s.r.o., Prague, Czech Republic). After treatment and incubation time corresponding to cytotoxicity/protection experiments (3 h preincubation with topobexin (9) [10 µM], 3 h co-incubation with topobexin (9) [10 µM] + DAU [1.2 µM], 45 h drug-free medium) NVCM were stained with 0.5 μM JC-1 probe (Molecular Probes/Thermo Fisher Scientific, USA) for 30 min at 37 °C or combination of 0.2 μM MitoTracker Red CMXRos (Molecular Probes/Thermo Fisher Scientific, USA) for 30 min and Hoechst 33342 for 10 min at 37 °C and then washed with a buffer (1.2 mM MgSO4 · 7H2O, 116 mM NaCl, 5.3 mM KCl, 1.13 mM NaH2PO4 · H2O, 20 mM HEPES).

YFP-TOP2A = target: T2, YFP-TOP2A (Homo sapiens, UniProt P11388); assay: FRAP analysis, YFP-TOP2A in HEK293F cells; assay type: cell-based; conditions: 0.25 and 1 μM
T2 construct: Using recombinant full-length human TOP2A and TOP2B enzymes; expressed in transfected cells; host or cells: HEK293F
T2 sequence (P11388 whole entry): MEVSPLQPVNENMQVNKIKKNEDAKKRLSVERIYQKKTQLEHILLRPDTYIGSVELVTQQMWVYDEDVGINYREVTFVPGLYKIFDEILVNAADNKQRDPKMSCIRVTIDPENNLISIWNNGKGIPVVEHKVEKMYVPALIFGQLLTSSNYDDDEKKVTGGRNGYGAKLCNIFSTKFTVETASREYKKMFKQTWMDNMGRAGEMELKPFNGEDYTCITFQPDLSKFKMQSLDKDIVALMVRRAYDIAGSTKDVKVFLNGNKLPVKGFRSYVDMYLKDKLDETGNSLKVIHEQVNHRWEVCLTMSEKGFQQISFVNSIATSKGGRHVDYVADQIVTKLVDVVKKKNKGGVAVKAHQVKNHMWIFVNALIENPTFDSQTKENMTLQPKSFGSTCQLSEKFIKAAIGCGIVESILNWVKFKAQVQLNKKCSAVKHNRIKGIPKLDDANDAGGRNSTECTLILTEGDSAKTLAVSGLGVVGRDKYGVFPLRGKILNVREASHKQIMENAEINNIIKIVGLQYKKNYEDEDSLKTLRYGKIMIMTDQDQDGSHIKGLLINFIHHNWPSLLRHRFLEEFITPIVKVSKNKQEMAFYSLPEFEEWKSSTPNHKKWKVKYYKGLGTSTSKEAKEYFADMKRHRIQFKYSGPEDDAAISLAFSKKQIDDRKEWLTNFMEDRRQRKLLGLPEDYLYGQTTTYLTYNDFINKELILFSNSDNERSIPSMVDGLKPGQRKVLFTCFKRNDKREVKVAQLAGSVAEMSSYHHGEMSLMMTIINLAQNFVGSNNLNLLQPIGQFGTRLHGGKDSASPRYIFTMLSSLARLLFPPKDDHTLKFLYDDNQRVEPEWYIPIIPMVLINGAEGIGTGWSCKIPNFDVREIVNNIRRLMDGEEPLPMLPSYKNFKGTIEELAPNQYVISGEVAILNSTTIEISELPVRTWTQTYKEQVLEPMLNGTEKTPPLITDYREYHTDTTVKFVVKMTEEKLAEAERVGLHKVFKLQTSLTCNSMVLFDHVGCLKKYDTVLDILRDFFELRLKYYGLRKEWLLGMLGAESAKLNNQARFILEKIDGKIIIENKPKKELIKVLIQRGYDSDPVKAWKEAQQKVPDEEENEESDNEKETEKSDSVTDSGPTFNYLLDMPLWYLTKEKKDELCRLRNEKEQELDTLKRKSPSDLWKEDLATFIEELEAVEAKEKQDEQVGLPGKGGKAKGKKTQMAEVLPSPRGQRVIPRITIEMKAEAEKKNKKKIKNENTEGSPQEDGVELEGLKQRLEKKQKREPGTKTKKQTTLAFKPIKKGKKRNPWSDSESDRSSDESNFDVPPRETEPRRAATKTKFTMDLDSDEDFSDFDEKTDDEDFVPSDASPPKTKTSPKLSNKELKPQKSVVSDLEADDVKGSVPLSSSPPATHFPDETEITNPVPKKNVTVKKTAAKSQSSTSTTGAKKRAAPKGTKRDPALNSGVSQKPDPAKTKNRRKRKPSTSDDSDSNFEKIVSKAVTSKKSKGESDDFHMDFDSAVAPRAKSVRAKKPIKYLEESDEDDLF
Procedure: HEK293F cells were transfected with DNA plasmids encoding yellow-fluorescent protein (YFP)-TOP2A or YFP-TOP2B (the same DNA constructs for mammalian protein expression and purification) using Lipofectamine 2000 (Thermo Fisher Scientific). Cells were cultured for 24 h post transfection and YFP signals were confirmed prior to FRAP experiments. Transfected cells were plated on glass-bottomed culture dishes (Matsunami) and rested overnight. The next day, each dish was pre-incubated with the indicated inhibitor treatment or DMSO control for 15 min prior to FRAP experiment. Each set of experiments was repeated on at least two different days using newly transfected cells each time. Live-cell imaging was done using a LSM 980 microscope (Carl Zeiss Microscopy, LLC). YFP signal was excited at 508 nm at 2% laser power and detected through a 516–604 nm range. A small area within the nucleus (purple box) is manually selected for fluorescence bleaching at 100% laser power for 50 iterations. Inhibition of TOP2 by obex inhibitors was detected by impairment in fluorescence recovery at 15 s post bleaching, as a lack of inhibition allows for TOP2 diffusion throughout the nucleus.

SMILES	solubility in aqueous environment (Aqueous solubility)	TOP2B protein levels in NVCM (TOP2B)	TOP2B protein level, mean (TOP2B; 0.1 µM, ctr mean 100)	TOP2B protein level (TOP2B; 0.1 µM, ctr mean 100)	TOP2B protein level, mean (TOP2B; 1 µM)	TOP2B protein level (TOP2B; 1 μM)	TOP2B protein level, mean (TOP2B; 10 µM)	TOP2B protein level (TOP2B; 10 µM)	DAU-induced changes in cardiomyocyte morphology and mitochondria (NVCM)	mobility of TOP2A (FRAP) (YFP-TOP2A)
CCCc1cc(=O)oc2c(C(=O)N3CCCc4ccccc43)c(OC)cc(OC)c12 [BNS-22]	poor solubility in aqueous environment	–	–	–	–	–	–	–	–	–
CCCc1cc(=O)oc2c(C(=O)N3CCCc4ccccc43)c(OCCN3CCN(C)CC3)ccc12 [topobexin (9)]	–	potent and concentration-dependent depletion	23.4137	11.507 and 22.9519 and 35.7822	1.8687	0.3883 and 3.978 and 1.24	0.6098	0.07384 and 0.9813 and 0.7742	reduced the distinct changes in cardiomyocyte morphology induced by DAU	not affected

From publication PMC12116762, “Topobexin targets the Topoisomerase II ATPase domain for beta isoform-selective inhibition and anthracycline cardioprotection” (Nature Communications, 2025)
